Legend:
[1] = tested on: HIV-1 NL4-3 gag A364V virus; assay: microbe, parasite or virus in culture; format: cell-based; settings: Human immunodeficiency virus 1, NL43, MT2, read-out: A364V (EC50, uM), Table 1 regular screen, MT-2 cells, luciferase readout
Summary of the method: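 Recombinant NL4-3 reporter virus with Renilla luciferase replacing part of nef, made by transfection of 293T cells. MT-2 cells infected for 4-5 days with serial inhibitor dilutions; antiviral activity quantified by luciferase activity.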

[2] = tested on: WT (wild-type HIV virus; recombinant NL4-3 virus); assay: microbe, parasite or virus in culture; format: cell-based, HIV-1; settings: Human immunodeficiency virus 1, NL43, MT2, read-out: WT (EC50, uM), Table 1 regular screen, MT-2 cells, luciferase readout
Summary of the method: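 MT-2 cells infected 4-5 days with NL4-3 carrying Renilla luciferase in place of part of nef (Gag P373S), virus made by 293T transfection, with serial inhibitor dilutions. Antiviral activity read as luciferase activity by a modified dual-luciferase read-out.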

[3] = tested on: HIV-1 92UG029 (clade A virus); assay: HIV cell culture assay, 92UG029 Gag/Pr recombinant virus in MT-2 cells; format: cell-based; settings: Human immunodeficiency virus 1, MT2, read-out: 92UG029A Clade T332S/V362I/V370A (EC50, uM)
Procedure: MT-2 cells and 293T cells were obtained from the NIH AIDS Research and Reference Reagent Program. MT-2 cells were propagated in RPMI 1640 media supplemented with 10% heat-inactivated fetal bovine serum, […]. The 293T cells were propagated in DMEM media supplemented with 10% heat-inactivated fetal bovine serum (FBS), 100 units/mL penicillin G and 100 μg/mL streptomycin. The proviral DNA clone of NL4-3 was obtained from the NIH AIDS Research and Reference Reagent Program. A recombinant NL4-3 virus, in which a section of the nef gene from NL4-3 was replaced with the Renilla luciferase gene, was used as a reference virus. In addition, residue Gag P373 was converted to P373S. Briefly, the recombinant virus was prepared by transfection of the altered proviral clone of NL4-3. Transfections were performed in 293T cells using LipofectAMINE PLUS from Invitrogen (Carlsbad, Calif.), according to manufacturer's instruction. The virus was titered in MT-2 cells using luciferase enzyme activity as a marker. Luciferase was quantitated using the Dual Luciferase kit from Promega (Madison, Wis.), with modifications to the manufacturer's protocol. The diluted Passive Lysis solution was pre-mixed with the re-suspended Luciferase Assay Reagent and the re-suspended Stop & Glo Substrate (2:1:1 ratio). Fifty (50) μL of the mixture was added to each aspirated well on assay plates and luciferase activity was measured immediately on a Wallac TriLux (Perkin-Elmer). Antiviral activities of inhibitors toward the recombinant virus were quantified by measuring luciferase activity in cells infected for 4-5 days with NLRluc recombinants in the presence serial dilutions of the inhibitor.
Determination of EC50 for WT, EC50 for A364V, and EC50 for 92UG029 viruses:
HIV-1 92UG029 was obtained from the NIH (Catalog Number: 1650). This is a subtype A Gag and subtype A Env, X4 (SI) virus from Uganda. Reference: WHO Network for HIV Isolation and Characterization. AIDS Res Hum Retroviruses 10:1359, 1994. The Gag/Pr region from 92UG029 was used to replace that in an HIV-1 NL4-3 virus expressing Renilla luciferase gene.
Both recombinant viruses were used as described above in the HIV cell culture assay for the NL4-3 virus.

Compound	EC50 [1] [µM]	EC50 [2] [µM]	EC50 [3] [µM]
C=C(C)[C@@H]1CC[C@]2(NCCN3CCC(S(C)(=O)=O)CC3)CC[C@]3(C)[C@H](CC[C@@H]4[C@@]5(C)CC=C(C6=CC[C@@](CF)(C(=O)O)CC6)C(C)(C)[C@@H]5CC[C@]43C)[C@@H]12 [Example 1b, (R)-1-(fluoromethyl)-4-((1R,3aS,5aR,5bR,7aR,11aS,11bR,13aR,13bR)-5a,5b, 8,8,11a-pentamethyl-3a-((2-(4-(methylsulfonyl)piperidin-1-yl)ethyl)amino)-1-(prop-1-en-2-yl)-2,3,3a,4,5,5a,5b,6,7,7a,8,11,11a,11 b,12,13,13a,13b-octadecahydro-1H-cyclopenta[a]chrysen-9-yl)cyclohex-3-enecarboxylic acid]	0.176	0.00193	0.00348
C=C(C)[C@@H]1CC[C@]2(NCCN3CCC(S(C)(=O)=O)CC3)CC[C@]3(C)[C@H](CC[C@@H]4[C@@]5(C)CC=C(C6=CC[C@](CF)(C(=O)O)CC6)C(C)(C)[C@@H]5CC[C@]43C)[C@@H]12 [Example 1a, (S)-1-(fluoromethyl)-4-((1R,3aS,5aR,5bR,7aR,11aS,11bR,13aR,13bR)-5a,5b,8,8,11a-pentamethyl-3a-((2-(4-(methylsulfonyl)piperidin-1-yl)ethyl)amino)-1-(prop-1-en-2-yl)-2,3,3a,4,5,5a,5b,6,7,7a,8,11,11a,11b,12,13,13a,13b-octadecahydro-1H-cyclopenta[a]chrysen-9-yl)cyclohex-3-enecarboxylic acid]	0.109	0.00225	0.00532

Source: patent publication US10245275B2 (ViiV HEALTHCARE UK (NO.4) LIMITED, priority 2014, dated 2019)
